{"source": "patent US9399194B2", "about": "“Methods for treating a liquid using draw solutions” (priority 2014, dated 2016)", "key": {"[1]": {"assay": "Freezing point depression osmometry: maximum concentration and osmotic pressure", "format": "physicochemical", "conditions": "for maximum osmotic pressure (projected): full/high concentration, projected from dilute solution freezing point data", "procedure": "(§1) House deionized (DI) water was used in all experiments. CHP was obtained from Alfa Aesar and used as received. All equipment was used in accordance with manufacturer specifications unless stated otherwise. Freezing point depression osmometry was performed using an Advanced Instruments, Inc. Model 3250 Osmometer. Viscosity measurements were made using the falling bob method with a Cambridge Applied Systems VL4100 viscometer.\nThe diamond symbols indicate molality of amine and ammonium ions. The square symbols indicate the total species molality including amines, ammonium ions, and carbonate species. […] There is strong evidence that as osmotic pressures increase, there are diminishing returns in terms of kinetics for osmotic flux. For any osmotic pressure over 370 atm, the osmotic pressure of a saturated NaCl solution is likely to be less important than solute and solution properties like diffusion and viscosity.\nThe maximum osmotic pressures of different tertiary amines were determined by osmometry."}, "[2]": {"assay": "Draw solution degassing monitored by freezing point osmometry", "format": "physicochemical", "conditions": "for temperature needed to degas: ambient atmospheric pressure, comparable kinetics", "excerpt": "To determine the relative performance of CHP and DMCA at different temperatures, draw solutions containing CHP or DMCA were recirculated through a segment of a heat exchanger featuring a high surface area honeycomb composition design with a temperature regulated fluid recirculated through the other path. Concentration data was collected with a freezing point osmometer by conventional techniques. Osmolality is an excellent predictor for the pressure needed to remove dissolved solids by filtration. Generally, 1 Osm/Kg corresponds to about 24.5 atm.\nUpon addition of one atm of CO2 to the draw solution of Example 1, the oily, nonpolar CHP readily produced the corresponding polar ammonium bicarbonate acid-base salt. To test the degassing process, CHP-ammonium bicarbonate solutions were recirculated through a high surface area heat exchanger with a gear pump while the other loop of the heat exchanger was attached to a recirculating heat bath that was set to the desired temperature. The experiment progression was monitored with a freezing point osmometry. The degassing process was intended to reduce the solution osmotic pressure, reducing it to nothing or minimizing it for a low pressure RO treatment. The progress of the degassing reaction was measured by osmometry, which corresponds to osmotic pressure and can be rapidly obtained. For comparison, a draw solution including DMCA-H^+ was also investigated. In the case of DMCA at full concentration, it will start degassing at a temperature as low as 25° C., requiring viscosity measurements to be made at 15° C. However, DMCA requires nearly reflux conditions to fully remove the CO2."}, "[3]": {"conditions": "at 25° C.; cited from earlier work"}, "[4]": {"assay": "Viscosity and density of the CHP-H+ draw solution", "format": "physicochemical", "procedure": "as §1\nDI water (229.7 g) and CHP (221.2 g, 1.32 mol) were placed in a bottle equipped with a gas diffuser and exposed to a steady stream of carbon dioxide for 3 hours while being stirred with a magnetic stir bar. The resulting product was a clear homogeneous solution with a mass of 491.4 g, a solution viscosity of 44.0 cP at 15.0° C., and a density of 1.09 g/ml at 21° C. After exposure to the carbon dioxide, the solution contained CHP-H^+ (i.e., CHP in its polar form)."}, "[5]": {"assay": "Forward osmosis flux experiments (FO mode) against pure water", "conditions": "about 30 wt % CHP-H+ or 0.9 mol/kg NaCl against pure water, identical membranes", "procedure": "All flux experiments were conducted in “FO mode” with the membrane's active layer facing the feed solution. The process was allowed 1-5 minutes to equilibrate and the average of the next 10 minutes was reported as the “initial flux.”\nUsing identical membranes and test conditions, the water flux for CHP-H^+ was 10 kg/m^2 hr compared with 10 kg/m^2 hr for the NaCl solution."}, "[6]": {"conditions": "saturated NaCl solution; cited from earlier work"}}, "note": "“And” between values parts separate entries of the source, which are not always exact repeats. Equal entries are not always repeated.", "data": [{"smiles": "C1CCC(N2CCCCC2)CC1", "note": "[CHP, 1-cyclohexylpiperidine]", "values": [{"measurement": "amine:carbonic acid ratio", "setting": "[1]", "result": 1.00}, {"measurement": "maximum osmotic pressure", "setting": "[1]; by osmometry, FIG. 4", "result": "greater than 250 atm"}, {"measurement": "maximum osmotic pressure (projected)", "setting": "[1]", "result": "536 atm and > 500 atm"}, {"measurement": "temperature needed to degas", "setting": "[2]", "result": "about 70 °C"}, {"measurement": "vapor pressure", "setting": "[3]", "result": "about 0.1 mm Hg"}]}, {"smiles": "C1CCC(N2CCCCC2)CC1", "note": "[CHP-H^+]", "values": [{"measurement": "solution viscosity", "setting": "[4]; draw solution of Example 1, at 15.0° C.", "result": 44.0, "unit": "cP"}, {"measurement": "density", "setting": "[4]; draw solution of Example 1, at 21° C.", "result": 1.09, "unit": "g/mL"}, {"measurement": "maximum osmotic pressure (projected)", "setting": "[1]", "result": "greater than 500 atm"}, {"measurement": "water flux (initial flux)", "setting": "[5]", "result": 10, "unit": "kg/m^2 hr"}, {"measurement": "osmolality after degassing", "setting": "[2]; 70° C., after extended treatment", "result": 0.2, "unit": "Osm/Kg"}, {"measurement": "osmolality after degassing", "setting": "[2]; 70° C., within 3 hours", "result": 0.6, "unit": "Osm/Kg"}]}, {"smiles": "CN(C)C1CCCCC1", "note": "[DMCA, N,N-dimethylcyclohexylamine]", "values": [{"measurement": "temperature needed to degas", "setting": "[2]", "result": "about 95 °C"}, {"measurement": "temperature at which degassing starts", "setting": "[2]; full concentration", "result": 25, "unit": "°C"}, {"measurement": "vapor pressure", "setting": "[3]", "result": "about 2.2 mm Hg"}]}, {"smiles": "CN(C)C1CCCCC1.O=C(O)O", "note": "[DMCA-H^+, dimethylcyclohexylammonium bicarbonate]", "values": [{"measurement": "maximum osmotic pressure (projected)", "setting": "[1]", "result": "~835", "unit": "atm"}, {"measurement": "osmolality after degassing", "setting": "[2]; 70° C., after 4-6 hours", "result": 2.4, "unit": "Osm/Kg"}, {"measurement": "osmolality after degassing", "setting": "[2]; 95° C., after 6.5 hours", "result": 0.2, "unit": "Osm/Kg"}]}, {"smiles": "[Cl-].[Na+]", "note": "[NaCl, reference compound]", "values": [{"measurement": "water flux (initial flux)", "setting": "[5]", "result": 10, "unit": "kg/m^2 hr"}, {"measurement": "osmotic pressure", "setting": "[6]", "result": 370, "unit": "atm"}]}]}
